# Patent US20120178766A1, “FUROPYRIMIDINEDIONE DERIVATIVES AS TRPAI MODULATORS” (priority 2009, published 2012)
# Key:
# human TRPA1 = molecular target: T1, human TRPA1 (Homo sapiens, UniProt O75762); experiment: 45Calcium uptake assay: inhibition of AITC induced cellular uptake of radioactive calcium, human TRPA1 expressing CHO cells; format: cell-based; settings: AITC 30 μM
# T1 construct: expressed in transfected cells; host or cells: CHO cells (G-418 selection)
# Summary of the method: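 CHO cells expressing TRPA1 were preincubated 10 min with compound (0.5% DMSO final), then given AITC (30 μM human, 10 μM rat) plus 5 μCi/ml 45Ca2+ for 3 min. Lysate radioactivity measured by scintillation; IC50 obtained by nonlinear regression of % maximal response without antagonist.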
# rat TRPA1 = molecular target: T2, rat TRPA1 (Rattus norvegicus, UniProt Q6RI86); experiment: 45Calcium uptake assay: inhibition of AITC induced cellular uptake of radioactive calcium, rat TRPA1 expressing CHO cells; format: cell-based; settings: AITC 10 μM; for IC50: class symbols; for inhibition at 10 µM: 10.0 μM compound, read-out: rat TRPA1 Percentage inhibition at 10.0 μM; for inhibition at 1 µM: read-out: rat TRPA1 Percentage inhibition
# T2 construct: expressed in transfected cells; host or cells: CHO cells (Zeocin selection)
# Summary of the method: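 CHO cells expressing rat or human TRPA1 were pre-treated with compound for 10 min, then given AITC (30 μM human, 10 μM rat) plus 5 μCi/ml 45Ca2+ for 3 min; final DMSO 0.5%. Lysate radioactivity was counted by scintillation. IC50 came from nonlinear regression of concentration-response curves as % of maximal response.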
# T2 sequence (Q6RI86 whole entry): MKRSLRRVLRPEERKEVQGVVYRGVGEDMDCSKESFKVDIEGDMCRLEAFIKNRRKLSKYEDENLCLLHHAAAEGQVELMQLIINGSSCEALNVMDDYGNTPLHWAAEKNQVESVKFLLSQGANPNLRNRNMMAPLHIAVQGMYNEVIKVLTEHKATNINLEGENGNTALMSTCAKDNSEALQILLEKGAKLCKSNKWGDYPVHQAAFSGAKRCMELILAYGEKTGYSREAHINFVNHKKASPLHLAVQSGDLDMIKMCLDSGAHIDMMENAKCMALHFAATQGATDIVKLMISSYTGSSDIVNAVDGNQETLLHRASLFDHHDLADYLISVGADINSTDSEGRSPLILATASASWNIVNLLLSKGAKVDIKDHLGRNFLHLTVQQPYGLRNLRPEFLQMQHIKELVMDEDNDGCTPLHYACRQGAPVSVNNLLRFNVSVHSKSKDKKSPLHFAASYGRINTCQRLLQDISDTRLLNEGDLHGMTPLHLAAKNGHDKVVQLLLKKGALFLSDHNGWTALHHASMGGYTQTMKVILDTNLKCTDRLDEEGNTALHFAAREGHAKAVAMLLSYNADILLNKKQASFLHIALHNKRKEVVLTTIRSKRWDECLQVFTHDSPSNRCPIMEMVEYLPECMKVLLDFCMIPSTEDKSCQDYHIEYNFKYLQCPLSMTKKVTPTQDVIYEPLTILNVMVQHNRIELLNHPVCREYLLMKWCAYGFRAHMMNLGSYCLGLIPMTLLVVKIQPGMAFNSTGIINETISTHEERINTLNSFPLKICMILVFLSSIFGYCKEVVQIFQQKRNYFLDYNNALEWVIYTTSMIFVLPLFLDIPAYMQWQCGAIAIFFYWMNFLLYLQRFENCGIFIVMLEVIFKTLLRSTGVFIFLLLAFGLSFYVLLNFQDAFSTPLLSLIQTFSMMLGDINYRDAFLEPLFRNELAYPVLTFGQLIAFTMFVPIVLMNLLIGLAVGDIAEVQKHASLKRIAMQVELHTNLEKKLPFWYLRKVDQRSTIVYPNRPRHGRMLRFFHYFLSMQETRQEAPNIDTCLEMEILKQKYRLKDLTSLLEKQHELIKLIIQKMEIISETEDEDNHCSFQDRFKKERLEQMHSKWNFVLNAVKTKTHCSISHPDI
# T1 sequence (O75762 whole entry): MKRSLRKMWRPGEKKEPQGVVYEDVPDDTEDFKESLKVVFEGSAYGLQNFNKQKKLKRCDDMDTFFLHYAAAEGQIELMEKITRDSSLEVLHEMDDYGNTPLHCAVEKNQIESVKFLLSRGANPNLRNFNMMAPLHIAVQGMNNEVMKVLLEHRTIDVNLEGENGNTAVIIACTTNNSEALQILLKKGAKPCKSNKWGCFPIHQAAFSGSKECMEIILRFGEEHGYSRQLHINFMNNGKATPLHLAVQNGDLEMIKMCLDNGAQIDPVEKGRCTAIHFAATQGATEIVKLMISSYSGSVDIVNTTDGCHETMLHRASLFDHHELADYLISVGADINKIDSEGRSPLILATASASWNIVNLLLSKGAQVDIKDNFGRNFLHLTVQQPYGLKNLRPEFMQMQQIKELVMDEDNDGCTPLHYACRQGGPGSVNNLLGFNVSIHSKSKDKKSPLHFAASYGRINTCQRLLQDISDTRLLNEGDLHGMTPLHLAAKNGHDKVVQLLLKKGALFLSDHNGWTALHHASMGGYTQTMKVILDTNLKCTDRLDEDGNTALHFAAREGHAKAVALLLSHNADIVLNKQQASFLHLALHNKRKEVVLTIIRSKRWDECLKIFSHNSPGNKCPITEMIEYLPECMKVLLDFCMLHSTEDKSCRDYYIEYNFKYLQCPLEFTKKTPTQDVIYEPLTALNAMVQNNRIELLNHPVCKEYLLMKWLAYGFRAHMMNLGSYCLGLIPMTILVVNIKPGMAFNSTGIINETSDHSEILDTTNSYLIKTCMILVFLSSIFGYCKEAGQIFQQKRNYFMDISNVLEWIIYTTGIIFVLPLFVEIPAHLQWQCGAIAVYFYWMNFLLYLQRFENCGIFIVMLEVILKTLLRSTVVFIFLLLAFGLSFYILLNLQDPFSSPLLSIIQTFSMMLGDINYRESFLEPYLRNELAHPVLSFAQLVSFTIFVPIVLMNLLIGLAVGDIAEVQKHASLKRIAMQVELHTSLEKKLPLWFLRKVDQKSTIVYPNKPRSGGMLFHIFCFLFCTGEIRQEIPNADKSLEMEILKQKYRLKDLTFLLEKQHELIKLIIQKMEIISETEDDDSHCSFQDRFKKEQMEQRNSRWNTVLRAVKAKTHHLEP
IC50 (human TRPA1; class symbols),IC50 (rat TRPA1),inhibition at 10 µM (rat TRPA1),inhibition at 1 µM (rat TRPA1),IC50 (human TRPA1; numeric values),Structure (SMILES)
< 50 nM,< 50 nM,–,–,–,"Cc1oc2c(c1CC(=O)Nc1nc(-c3ccc(OC(F)(F)F)c(Cl)c3)cs1)c(=O)n(C)c(=O)n2C [Example 70, N1-{4-[3-Chloro-4-(trifluoromethoxy)phenyl]-1,3-thiazol-2-yl}-2-(1,3,6-trimethyl-2,4-dioxo-1,2,3,4-tetrahydrofuro[2,3-d]pyrimidin-5-yl)acetamide]"
< 50 nM,50 to 100 nM,–,–,–,Cc1oc2c(c1CC(=O)Nc1nc(-c3cc(Cl)cc(OC(F)(F)F)c3)cs1)c(=O)n(C)c(=O)n2C [Example 71]
< 50 nM,< 50 nM,100%,100%,–,"Cc1oc2c(c1CC(=O)Nc1nc(-c3ccc(OCC(F)(F)F)c(Cl)c3)cs1)c(=O)n(C)c(=O)n2C [Example 74, N1-{4-[3-Chloro-4-(2,2,2-trifluoroethoxy)phenyl]-1,3-thiazol-2-yl}-2-(1,3,6-trimethyl-2,4-dioxo-1,2,3,4-tetrahydrofuro[2,3-d]pyrimidin-5-yl)acetamide]"
–,50 to 100 nM,–,–,7.65 nM,"Cc1oc2c(c1CC(=O)Nc1nc(-c3cc(F)c(F)c(F)c3)cs1)c(=O)n(C)c(=O)n2C [Example 76, N1-[4-(3,4,5-Trifluorophenyl)-1,3-thiazol-2-yl]-2-(1,3,6-trimethyl-2,4-dioxo-1,2,3,4-tetrahydrofuro[2,3-d]pyrimidin-5-yl)acetamide]"
–,< 50 nM,–,–,4.16 nM,"Cc1oc2c(c1CC(=O)Nc1nc(-c3cc(F)c(C(F)(F)F)c(F)c3)cs1)c(=O)n(C)c(=O)n2C [Example 84, N1-{4-[3,5-Difluoro-4-(trifluoromethyl)phenyl]-1,3-thiazol-2-yl}-2-(1,3,6-trimethyl-2,4-dioxo-1,2,3,4-tetrahydrofuro[2,3-d]pyrimidin-5-yl)acetamide]"
–,< 50 nM,95.4%,99.1%,4.11 nM,"Cc1oc2c(c1CC(=O)Nc1nc(-c3cc(Cl)c(OC(F)F)c(Cl)c3)cs1)c(=O)n(C)c(=O)n2C [Example 86, N1-{4-[3,5-Dichloro-4-(difluoromethoxy)phenyl]-1,3-thiazol-2-yl}-2-(1,3,6-trimethyl-2,4-dioxo-1,2,3,4-tetrahydrofuro[2,3-d]pyrimidin-5-yl)acetamide]"
–,–,100%,98.3%,1.77 nM,"Cc1oc2c(c1CC(=O)Nc1nc(-c3cc(Cl)c(OCC(F)(F)F)c(Cl)c3)cs1)c(=O)n(C)c(=O)n2C [Example 88, N1-{4-[3,5-Dichloro-4-(2,2,2-trifluoroethoxy)phenyl]-1,3-thiazol-2-yl}-2-(1,3,6-trimethyl-2,4-dioxo-1,2,3,4-tetrahydrofuro[2,3-d]pyrimidin-5-yl)acetamide]"

# Further lines, the molecule ahead of its results:
Structure (SMILES),IC50 (human TRPA1; class symbols),IC50 (rat TRPA1),inhibition at 10 µM (rat TRPA1),inhibition at 1 µM (rat TRPA1),IC50 (human TRPA1; numeric values)
"Cc1oc2c(c1CC(=O)Nc1nc(-c3ccc(OC(F)F)c(Cl)c3)cs1)c(=O)n(C)c(=O)n2C [Example 72, N1-{4-[3-Chloro-4-(difluoromethoxy)phenyl]-1,3-thiazol-2-yl}-2-(1,3,6-trimethyl-2,4-dioxo-1,2,3,4-tetrahydrofuro[2,3-d]pyrimidin-5-yl)acetamide]",< 50 nM,> 100 nM,100%,100%,–
"Cc1oc2c(c1CC(=O)Nc1nc(-c3ccc(OCC(F)(F)F)c(F)c3)cs1)c(=O)n(C)c(=O)n2C [Example 73, N1-{4-[3-Fluoro-4-(2,2,2-trifluoroethoxy)phenyl]-1,3-thiazol-2-yl}-2-(1,3,6-trimethyl-2,4-dioxo-1,2,3,4-tetrahydrofuro[2,3-d]pyrimidin-5-yl)acetamide]",< 50 nM,–,100%,100%,–
"Cc1oc2c(c1CC(=O)Nc1nc(-c3cc(F)c(F)cc3F)cs1)c(=O)n(C)c(=O)n2C [Example 75, N1-[4-(2,4,5-Trifluorophenyl)-1,3-thiazol-2-yl]-2-(1,3,6-trimethyl-2,4-dioxo-1,2,3,4-tetrahydrofuro[2,3-d]pyrimidin-5-yl)acetamide]",–,50 to 100 nM,–,–,18.5 nM
"Cc1oc2c(c1CC(=O)Nc1nc(-c3ccc(F)c(F)c3F)cs1)c(=O)n(C)c(=O)n2C [Example 77, N1-[4-(2,3,4-Trifluorophenyl)-1,3-thiazol-2-yl]-2-(1,3,6-trimethyl-2,4-dioxo-1,2,3,4-tetrahydrofuro[2,3-d]pyrimidin-5-yl)acetamide]",–,–,98.5%,99.2%,19.2 nM
"Cc1oc2c(c1CC(=O)Nc1nc(-c3ccc(F)c(Cl)c3F)cs1)c(=O)n(C)c(=O)n2C [Example 78, N1-[4-(3-Chloro-2,4-difluorophenyl)-1,3-thiazol-2-yl]-2-(1,3,6-trimethyl-2,4-dioxo-1,2,3,4-tetrahydrofuro[2,3-d]pyrimidin-5-yl)acetamide]",–,–,94.8%,94.5%,34.5 nM
Cc1oc2c(c1CC(=O)Nc1nc(-c3cc(F)c(OCC(C)(C)C)c(F)c3)cs1)c(=O)n(C)c(=O)n2C [Example 80],–,< 50 nM,–,–,3.63 nM
"Cc1oc2c(c1CC(=O)Nc1nc(-c3cc(F)c(OCC(C)C)c(F)c3)cs1)c(=O)n(C)c(=O)n2C [Example 81, N1-[4-(3,5-Difluoro-4-isobutoxyphenyl)-1,3-thiazol-2-yl]-2-(1,3,6-trimethyl-2,4-dioxo-1,2,3,4-tetrahydrofuro[2,3-d]pyrimidin-5-yl)acetamide]",–,50 to 100 nM,99.2%,100%,4.63 nM
"Cc1oc2c(c1CC(=O)Nc1nc(-c3cc(Cl)c(OCC(C)C)c(Cl)c3)cs1)c(=O)n(C)c(=O)n2C [Example 82, N1-[4-(3,5-Dichloro-4-isobutoxyphenyl)-1,3-thiazol-2-yl]-2-(1,3,6-trimethyl-2,4-dioxo-1,2,3,4-tetrahydrofuro[2,3-d]pyrimidin-5-yl)acetamide]",–,< 50 nM,100%,100%,3.34 nM
"Cc1oc2c(c1CC(=O)Nc1nc(-c3ccc(F)c(C(F)(F)F)c3F)cs1)c(=O)n(C)c(=O)n2C [Example 83, N1-{4-[2,4-Difluoro-3-(trifluoromethyl)phenyl]-1,3-thiazol-2-yl}-2-(1,3,6-trimethyl-2,4-dioxo-1,2,3,4-tetrahydrofuro[2,3-d]pyrimidin-5-yl)acetamide]",–,< 50 nM,–,–,4.52 nM
"Cc1oc2c(c1CC(=O)Nc1nc(-c3cc(F)c(OC(F)F)c(F)c3)cs1)c(=O)n(C)c(=O)n2C [Example 85, N1-{4-[3,5-Difluoro-4-(difluoromethoxy)phenyl]-1,3-thiazol-2-yl}-2-(1,3,6-trimethyl-2,4-dioxo-1,2,3,4-tetrahydrofuro[2,3-d]pyrimidin-5-yl)acetamide]",–,–,100%,100%,6.57 nM
"Cc1oc2c(c1CC(=O)Nc1nc(-c3cc(F)c(OCC(F)(F)F)c(F)c3)cs1)c(=O)n(C)c(=O)n2C [Example 87, N1-{4-[3,5-Difluoro-4-(2,2,2-trifluoroethoxy)phenyl]-1,3-thiazol-2-yl}-2-(1,3,6-trimethyl-2,4-dioxo-1,2,3,4-tetrahydrofuro[2,3-d]pyrimidin-5-yl)acetamide]",–,< 50 nM,–,–,1.68 nM
"Cc1oc2c(c1CC(=O)Nc1nc(-c3cc(F)c(OCC4CC4)c(F)c3)cs1)c(=O)n(C)c(=O)n2C [Example 89, N1-{4-[4-(Cyclopropylmethoxy)-3,5-difluorophenyl]-1,3-thiazol-2-yl]-2-(1,3,6-trimethyl-2,4-dioxo-1,2,3,4-tetrahydrofuro[2,3-d]pyrimidin-5-yl)acetamide]",–,50 to 100 nM,98.8%,–,9.72 nM
"Cc1oc2c(c1CC(=O)Nc1nc(-c3ccc(F)c(C(F)(F)F)c3)c(C)s1)c(=O)n(C)c(=O)n2C [Example 90, N1-{4-[4-Fluoro-3-(trifluoromethyl)phenyl]-5-methyl-1,3-thiazol-2-yl}-2-(1,3,6-trimethyl-2,4-dioxo-1,2,3,4-tetrahydrofuro[2,3-d]pyrimidin-5-yl)acetamide]",–,–,99.5%,98%,14.2 nM
